Measurements reported in US5753483A (priority 1995, dated 1998).

Columns and labels:
[1] = target: T1, Pyrophosphorylase (Sus scrofa, UniProt F1S210); test: Specificity of pyrophosphorylase (reverse direction); assay type: biochemical, pig
T1 construct: 64 and 55 kDa bands; native about 125 kDa
Procedure: (§1) When measured in the reverse direction, either a direct assay or an indirect assay could be used. […] The incubation mixtures contained the following components in a final volume of 50 μl: 5 mM sodium pyrophosphate, 250 uM UDP-[^3 H]GlcNAc (2.2 Ci/mmol), 100 mM Tris HCl buffer, pH 8.5, 2 mM MgCl2, and various amounts of enzyme at the different stages of purification. […] The suspension was vortexed vigorously for 2 minutes, and was then centrifuged in a microfuge. The supernatant liquid was removed and saved, and the charcoal was washed with 1 ml of water. The supernatant liquid from this wash was combined with the first supernatant liquid, and an aliquot was removed and counted, as a measure of the formation of GlcNAc-1-P.
(§2) For the indirect assay, a modification of the spectrophotometric method of Munch-Petersen, (1956) Acta Chim. Scand. […] The assay mixtures contained 50 mM Tris-HCl buffer, pH 7.5, 1 mM MgCl2, 0.5 mM ADP, 1 mM glucose, 0.5 mM NADP, 1 mM inorganic pyrophosphate, 2 mM UDP-HexNAc and 2.5 units each of nucleoside diphosphate kinase, hexokinase and glucose-6-P dehydrogenase.
The substrate specificity of the purified enzyme was examined in both the forward and the reverse direction.

[2] = system: UDP-GlcNAc pyrophosphorylase; conditions: from 10 μmol GalNAc-1-P or glucose-1-P, and UTP
Procedure: The reaction products, formed in either the forward direction (i.e., uridine diphosphate sugars), or in the reverse direction (i.e., UTP and sugar-i-P's), were isolated by chromatography on a 1×20
column of DEAE-cellulose (HCO3 -), equilibrated in 10 mM NH4 HCO3. After application of the sample, the column was washed with the same solution and the retained products were eluted with 200 ml of a linear 10 to 300 mM gradient of NH4 HCO3. Fractions were analyzed for nucleotides by measuring the absorption at 260 nm, for radioactivity by scintillation counting, and for hexosamine by the Reissig test (J. Biol. Chem., 217, 959-966, 1955) or the or the Elson Morgan assay (Wheat, R. W. (1966) Meth. Enzymol. 8, 60-78). Peak fractions were pooled and concentrated on a rotary evaporator and NH4 H CO3 was removed by evaporation in the presence of triethylamine. The triethylamine was in turn removed by evaporation in the presence of methanol.
The reaction products were identified by chromatography, either directly, or following various treatments such as digestion with phosphodiesterase or alkaline phosphatase, or acid hydrolysis. Nucleotides were identified by TLC in the following systems: PEI plates developed in 0.2M and 0.4M solutions of LiCl; cellulose plates in ethanol: 1M ammonium acetate, pH 7.3 (7:3), or silica gel plates in ethanol: 1M ammonium acetate, pH 5.0 (7:3). N-acetyl-hexosamines were released from nucleotides by mild acid hydrolysis (0.01 N HCl, 100° C., 15 minutes) and identified by chromatography on borate-treated paper in n-butanol:pyridine:water (6:4:3) as described earlier by Cardini and Leloir, (1953) Arch. Biochem. Biophys., 45, 317-324.
After deproteinization, the aqueous phase was applied to a column of DE-52 and sugar phosphates and nucleoside diphosphate sugars were separated with a gradient of NH4 HCO3, as shown in FIG. 4. […] The peak was pooled and subjected to TLC in 3 different solvent systems as described above.
The characterization of these products was also based on the products produced by phosphosdiesterase, mild acid hydrolysis and other treatments.

[3] = system: UDP-GlcNAc pyrophosphorylase; conditions: reverse direction, at 1 mM inorganic pyrophosphate
Procedure: as §1, §2

[4] = system: UDP-GlcNAc pyrophosphorylase; test: Inhibition of pyrophosphorolysis of UDP-[^3 H]GlcNAc by nucleotides (FIG. 3); assay type: biochemical, pig; conditions: increasing concentrations; reverse direction
Procedure: Activity was measured in the reverse direction (i.e., production of GlcNAc-1-P) as indicated.
as §1

[5] = target: T2, UDP-GlcNAc pyrophosphorylase (Sus scrofa, UniProt F1S210); test: Photoaffinity labeling of purified pyrophosphorylase and its inhibition (FIG. 5); assay type: binding, pig; conditions: unlabeled UDP-GalNAc or UDP-glucose
T2 construct: both 64 and 55 kDa bands photolabelled
T2 sequence (F1S210 1-505): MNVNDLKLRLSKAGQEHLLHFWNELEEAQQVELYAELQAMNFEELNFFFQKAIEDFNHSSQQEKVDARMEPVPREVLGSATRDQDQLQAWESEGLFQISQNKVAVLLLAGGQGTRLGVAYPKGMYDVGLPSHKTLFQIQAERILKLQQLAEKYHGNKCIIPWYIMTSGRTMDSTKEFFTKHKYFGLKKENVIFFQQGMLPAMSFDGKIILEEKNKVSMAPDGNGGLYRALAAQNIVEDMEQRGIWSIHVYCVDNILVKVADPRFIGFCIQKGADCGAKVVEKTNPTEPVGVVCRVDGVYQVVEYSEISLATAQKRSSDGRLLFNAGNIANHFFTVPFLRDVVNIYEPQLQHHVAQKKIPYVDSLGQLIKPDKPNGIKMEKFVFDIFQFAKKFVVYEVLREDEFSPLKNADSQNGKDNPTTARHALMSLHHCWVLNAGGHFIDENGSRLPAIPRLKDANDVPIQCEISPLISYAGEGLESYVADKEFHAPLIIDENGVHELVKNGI
Procedure: Enzyme was incubated with radioactive probe in the presence or absence of various inhibitors, and some of the incubations were exposed to UV light to activate the probe. Each incubation was treated with trichloroacetic acid to precipitate the protein, and the pellet was resuspended in SDS and subjected to SDS-PAGE. Radioactive proteins were detected by exposure to film. […]

[6] = system: enzyme from bacteria; conditions: cited from earlier work
[7] = system: UDP-GlcNAc pyrophosphorylase; conditions: calf liver and Staphylococcus aureus preparations; cited from earlier work
[8] = system: sheep brain enzyme; conditions: cited from earlier work

T1 sequence (F1S210 1-505): as above

Question: For `CC(=O)N[C@H]1[C@@H](OP(=O)(O)OP(=O)(O)OC[C@H]2O[C@@H](n3ccc(=O)[nH]c3=O)[C@H](O)[C@@H]2O)O[C@H](CO)[C@H](O)[C@@H]1O` [UDP-GalNAc, UDP-N-acetylgalactosamine], which “substrate preference, reverse direction” value [1] is on record?
Answer: The value was “preferred UDP-GalNAc over UDP-GlcNAc”.

Question: What about the Activity ([1]; 5 mM, PP = 1 mM) of the same compound?
Answer: The Activity was 19.7 nmol/min.

Question: What about the “Relative Activity” value ([1]; 5 mM, PP = 1 mM, UDP-GalNAc = 100) of the same compound?
Answer: Its value is 100%.

Question: And the amount formed [2]?
Answer: The amount formed was 8.2 µmol.

Question: And the “amount formed, percent” value [2]?
Answer: The value was 82%.

Question: What about the Km [3] of the same compound?
Answer: Its Km is 200 µM.

Question: And the Vmax [3]?
Answer: The Vmax was 31.3 nmol/min.

Question: What about the “inhibition of reaction with UDP-[^3 H]GlcNAc” value [4] of the same compound?
Answer: Its value is “inhibited by increasing concentrations”.

Question: And the inhibition of labeling [5]?
Answer: Its inhibition of labeling is “also blocked, although not nearly as effectively”.

Question: What about the “activity relative to UDP-GlcNAc” value [6] of the same compound?
Answer: Its value is 2.6%.

Question: What about the “rate of phosphorolysis relative to UDP-GlcNAc” value [7] of the same compound?
Answer: Its value is “about 2.8%”.

Question: And the “activity as substrate (in words)” value [8]?
Answer: Its value is “not with UDP-GalNAc”.
